Reference: PMC9950073, “Alleviation of arthritis through prevention of neutrophil extracellular traps by an orally available inhibitor of protein arginine deiminase 4” (Scientific Reports, 2023)

Tested on: collagen induced arthritis
Assay: Collagen induced arthritis model in DBA/1 mice
Assay type: in vivo
Settings: Dexamethasone dose not given; for clinical score: JBI-589 50 mg/kg po BID day 0-45; for clinical score / bone erosion (histopathology) / joint inflammation (histopathology) / pannus formation (histopathology): Etanercept 25 mg/kg IP day 31–45

Compound: C[C@@H]1C[C@H]2[C@@H]3CCC4=CC(=O)C=C[C@]4(C)[C@@]3(F)[C@@H](O)C[C@]2(C)[C@@]1(O)C(=O)CO [Dexamethasone]
- clinical score: strong inhibition
- bone erosion (histopathology) (JBI-589 50 mg/kg po BID): significantly decreased
- joint inflammation (histopathology) (JBI-589 50 mg/kg po BID): significantly decreased
- pannus formation (histopathology) (JBI-589 50 mg/kg po BID): significantly decreased
- spleen weight (day 45, JBI-589 50 mg/kg po BID): stronger reduction
- body weight (end of study, JBI-589 50 mg/kg po BID): stronger reduction

Compound: Etanercept
- clinical score: comparable inhibition
- bone erosion (histopathology) (JBI-589 50 mg/kg po BID): no appreciable effect
- joint inflammation (histopathology) (JBI-589 50 mg/kg po BID): no appreciable effect
- pannus formation (histopathology) (JBI-589 50 mg/kg po BID): no appreciable effect
